Reference: US5157019A, “Serine protease inhibitors” (Monsanto Company, priority 1991, dated 1992)
Read-outs that look alike come from different tables or passages of the source. Ends that are not written are not given here.

Columns and labels:
Type in all cases: biochemical
HUMAN SPUTUM ELASTASE = biological target: T1, HUMAN SPUTUM ELASTASE (Homo sapiens, UniProt P08246); test: Elastase assay (MeO-Suc-Ala-Pro-Val-pNA); conditions: 200 μM peptide
T1 construct: HUMAN SPUTUM ELASTASE; purchased Elastin Products Company SE563; host or cells: human sputum (from the product name)
T1 sequence (P08246 30-267): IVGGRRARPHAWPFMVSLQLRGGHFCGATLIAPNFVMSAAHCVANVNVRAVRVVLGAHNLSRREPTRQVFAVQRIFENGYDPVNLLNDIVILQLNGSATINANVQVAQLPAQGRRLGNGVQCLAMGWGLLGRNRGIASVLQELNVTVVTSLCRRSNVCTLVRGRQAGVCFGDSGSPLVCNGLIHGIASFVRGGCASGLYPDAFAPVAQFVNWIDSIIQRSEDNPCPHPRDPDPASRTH
Protocol: Enzyme used is "HUMAN SPUTUM ELASTASE®" which is an enzyme which is the target protease for α1 antitrypsin from Elastin Products Company, Catalog No. SE563, lot 85071, 875 units/mg as determined by supplier with N-Suc-Ala-Ala-Ala-pNA; prepared at 0.2 mg/mL in 0.1M Tris·HCl, pH 8.8 at 37 degrees C. An amount of enzyme is used to give approximately 0.1 change in Absorbance/min; which in this assay was 1 μg.
The substrate is MeO-Suc-Ala-Pro-Val-pNA, Sigma Catalog No. M-4765. About 50 mg of the substrate is dissolved in 1 ml of 1-methyl-2-pyrrolidinone and diluted to 33 mls. with 0.1M Tris-HCl, pH 7.5, containing 0.5M NaCl, and 0.01 wt % sodium azide.
Peptide solutions are prepared at 500 μM, using 1.5% of the final volume of DMSO first and diluting with distilled water (DW) or 0.1M Tris.HCl, pH 8.8 at 37 degrees C. [formula]

C1s = biological target: T2, C1s (Homo sapiens, UniProt P09871); test: C1s assay by inhibition of fluid phase C4 activation
T2 construct: prepared from pooled human plasma; from tissue; host or cells: pooled human plasma
T2 sequence (P09871 16-688): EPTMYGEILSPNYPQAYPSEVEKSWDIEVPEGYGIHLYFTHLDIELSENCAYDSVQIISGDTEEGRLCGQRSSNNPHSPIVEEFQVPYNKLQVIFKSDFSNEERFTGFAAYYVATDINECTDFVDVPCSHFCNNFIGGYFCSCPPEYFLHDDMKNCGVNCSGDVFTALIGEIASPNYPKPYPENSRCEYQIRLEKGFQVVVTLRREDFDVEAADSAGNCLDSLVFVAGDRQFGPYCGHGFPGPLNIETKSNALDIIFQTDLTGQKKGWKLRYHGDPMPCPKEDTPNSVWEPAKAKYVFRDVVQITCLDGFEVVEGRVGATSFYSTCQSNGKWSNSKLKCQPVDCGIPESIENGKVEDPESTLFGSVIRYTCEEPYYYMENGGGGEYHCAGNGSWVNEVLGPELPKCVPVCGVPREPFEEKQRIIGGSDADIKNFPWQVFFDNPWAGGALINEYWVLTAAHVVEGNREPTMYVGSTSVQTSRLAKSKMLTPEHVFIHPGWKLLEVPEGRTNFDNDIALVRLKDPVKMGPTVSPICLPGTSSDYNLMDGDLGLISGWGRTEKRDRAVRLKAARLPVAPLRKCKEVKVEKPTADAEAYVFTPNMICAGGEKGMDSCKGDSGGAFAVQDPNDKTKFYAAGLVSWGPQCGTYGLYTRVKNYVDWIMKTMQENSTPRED
Protocol: Highly purified C3, C4, Factor D, Factor B, and C1s were prepared from pooled human plasma. Factors B and C4 were radiolabeled by periodate oxidation of sialic acid residues, followed by reduction with tritiated sodium borohydride. In a representative experiment, a solution of 1.2 mg of factor B in 1.8 ml of PBS was treated with 70 μl of 0.1M NaIO4. After 10 min incubation on ice, excess reagent was removed by filtration over "SEPHADEX®" which is a matrix for gel chromatography (1.0 cm×20 cm). To the protein pool was added 60 μl of NaB[^3 H]4 solution and incubated for 30 min on ice. Labeled protein was separated from excess reagent by desalting or dialysis. Human C4 was radiolabeled in the same manner. Radiolabeled proteins were stored at -70° C. in PBS. The specific radioactivity of ^3 H factor B was about 10,000 CPM/μg and that of ^3 H-C4 was 5,000 CPM/μg.
The cleavage of C4 was studied by incubating 10 μg of tritiated C4 with 3-5 ng of C1s at 37° C. for 30 min in 100 μl of PBS (pH 7.10) containing different concentrations of inhibitor. The reaction was stopped by the addition of 2-mercaptoethanol. The extent of cleavage was analyzed by SDS-polyacrylamide gel electrophoresis. The stained bands corresponding to C4α and C4α' were cut out and sliced. The radioactivity of the fragments was measured by liquid scintillation counting. The percent cleavage of the reaction was calculated as follows: [formula]
Electrophoresis was carried out under reducing conditions in the Laemmli system using slab gel of 8% polyacrylamide. The gels were stained and destained (Fairbanks et al. Biochemistry (1971) 10:2606).
The percent inhibition of the reaction was calculated according to the following relationship: [formula]
A: % cleavage without inhibitor
B: % cleavage with inhibitor
The concentration inducing 50% inhibition was obtained by plotting the percent inhibition on a probability graph (National Blank Book Co., No. 12-083) on the ordinate and the log of the inhibitor concentration on the abscissa. From this graph, a 50% inhibition concentration IC50 was obtained and this value was employed to express the activity.

Plasma Kallikrein = biological target: T3, Plasma Kallikrein (Homo sapiens, UniProt P03952); test: Plasma kallikrein assay (Chromozym PK); conditions: for Kallikrein % inhibition: 50 μM peptide; for inhibition at 100 µM: 100 μM peptide
T3 construct: purchased Sigma K-3126
T3 sequence (P03952 20-638): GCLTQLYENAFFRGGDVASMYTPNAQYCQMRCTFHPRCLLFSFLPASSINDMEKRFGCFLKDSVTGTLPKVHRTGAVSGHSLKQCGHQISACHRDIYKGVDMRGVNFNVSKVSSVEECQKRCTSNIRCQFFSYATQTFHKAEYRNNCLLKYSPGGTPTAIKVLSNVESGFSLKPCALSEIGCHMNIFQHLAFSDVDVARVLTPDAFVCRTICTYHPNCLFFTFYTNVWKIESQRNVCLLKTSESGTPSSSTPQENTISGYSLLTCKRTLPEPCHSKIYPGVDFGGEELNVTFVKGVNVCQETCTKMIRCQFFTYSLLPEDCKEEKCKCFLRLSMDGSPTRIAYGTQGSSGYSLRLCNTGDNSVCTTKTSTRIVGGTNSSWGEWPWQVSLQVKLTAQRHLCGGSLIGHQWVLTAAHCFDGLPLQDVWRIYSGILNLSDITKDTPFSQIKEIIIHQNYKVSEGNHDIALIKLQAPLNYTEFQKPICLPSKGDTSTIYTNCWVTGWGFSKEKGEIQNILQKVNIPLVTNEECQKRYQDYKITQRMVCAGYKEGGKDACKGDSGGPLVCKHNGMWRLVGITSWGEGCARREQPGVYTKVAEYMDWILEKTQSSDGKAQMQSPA
Protocol: Buffer 150 mM Tris·HCl, pH 8.0
Substrate Benzyl-Pro-Phe-Arg-pNa (Chromozym PK, Boeringer Mannheim), 10 mM in deionized water.
Enzyme Plasma Kallikrein (Sigma, K-3126), 0.0312 μ/ml. Used undiluted.
Inhibitor Dissolved at desired concentrations in deionized water or DMSO plus deionized water depending on solubility.
4. Incubate mixture for 5 min at 25° C.
6. Measure rate spectrophotometrically at […] at 25° C.
2. Add appropriate volume of peptide solution
3. Add adjusted volume of buffer compensating for volume of peptide solution.
4. Add an adjusted volume of DMSO to maintain a final amount of 25 μl in the assay
5. Incubate mixture for 5 min at 25° C.
7. Measure rate spectrophotometrically at […] at 25° C.
Inhibition (%) is calculated in the same manner as in previous assays.

[1] = Tables VI and VIII, % 50, read-out: C1s, μM concentration listed for 50 % inhibition

Compound	Elastase Inhibition (HUMAN SPUTUM ELASTASE)	IC50 (C1s; [1]) [µM]	Kallikrein % inhibition (Plasma Kallikrein) [%]	inhibition at 200 µM (HUMAN SPUTUM ELASTASE) [%]	inhibition at 100 µM (Plasma Kallikrein) [%]	IC50 (C1s; Table X, μM concentration at which protease was inhibited 50%, read-out: IC50 C1S) [µM]	inhibition at 200 µM (C1s; 200 μM peptide) [%]
PNRVTFKANRPFLVFI [Peptide 2]		34		0	21		
VKFNKPFVFLLIEQNTKSPLFLGKVVNPTQK [Peptide 20]	0%	12	0				
AGRSLNPNRVTFKANRPFLVFIREVPLNTIIFLGRVANP [Peptide 27]				0		12	
IVRFNRPFLLII [Peptide 3]		55		0			
CC[C@H](C)[C@H](NC(=O)[C@H](CC(C)C)NC(=O)[C@H](Cc1ccccc1)NC(=O)[C@@H](NC(=O)[C@H](Cc1ccccc1)NC(=O)[C@@H]1CCCN1C(=O)[C@H](CCCCN)NC(=O)[C@H](CC(N)=O)NC(=O)[C@H](Cc1ccccc1)NC(=O)[C@H](CCCCN)NC(=O)[C@@H](NC(=O)[C@H](CCC(=O)O)NC(=O)[C@@H]1CCCN1C(=O)[C@@H]1CCCN1)C(C)C)C(C)C)C(=O)O [Peptide 1]	no inhibitory activity			0			0

Next, values leading:

Elastase Inhibition (HUMAN SPUTUM ELASTASE)	IC50 (C1s; [1]) [µM]	Kallikrein % inhibition (Plasma Kallikrein) [%]	inhibition at 200 µM (HUMAN SPUTUM ELASTASE) [%]	inhibition at 100 µM (Plasma Kallikrein) [%]	IC50 (C1s; Table X, μM concentration at which protease was inhibited 50%, read-out: IC50 C1S) [µM]	inhibition at 200 µM (C1s; 200 μM peptide) [%]	Compound
0%	6	58					IVRFNRPFLLIIVPTDTQNIFFLSKVTNPSKPR [Peptide 22]
	6		0	55			RVTFKANRPFLVFIREVPLNTIIFLGRVANP [Peptide 21]
